# What was measured:
# PTGER2 (EP2) = PTGER2 (EP2) (Homo sapiens (Human), UniProt P43116); assay: hEP2 b-arrestin assay (PathHunter HEK 293 PTGER2 b-arrestin cells); type: cell-based; conditions: antagonistic activity, beta-arrestin assay; read-out: hEP2 b-arr IC50
# Method: Plate is pre-incubated 15 minutes at 37° C. Then five microliters of PGE2 (final conc. 5 μM) are transferred into the assay plate. Plate is incubated 120 minutes at 37° C.
# (each concentration is measured in duplicate)
# EP2 = EP2 (Homo sapiens (Human), UniProt P43116); assay: hEP2 cAMP assay (SF295 glioblastoma cells, HTRF cAMP); type: cell-based; conditions: antagonistic activity
# How it was run: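 PGE2-driven cAMP accumulation was measured by HTRF in SF295 cells, which express endogenous EP2 only. Cells in assay buffer with 2 mM IBMX were pre-incubated 45 min at RT, then incubated 30 min at RT. Detection used competition between cellular cAMP and d2-cAMP for a cryptate anti-cAMP antibody.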
# EP4 = EP4 (Homo sapiens (Human), UniProt P35408); assay: hEP4 cAMP assay (BT549 breast cancer cells, HTRF cAMP); type: cell-based; conditions: antagonistic activity, PGE2 6 nM
# How it was run: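 BT549 breast cancer cells (endogenous EP4) in HBSS/20 mM HEPES/0.2% BSA/2 mM IBMX preincubated 45 min at RT with compound, then stimulated 30 min at RT with 6 nM PGE2 (final). cAMP read by competitive HTRF immunoassay, signal inversely proportional to cAMP.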
# PTGER4 (EP4) = PTGER4 (EP4) (Homo sapiens (Human), UniProt P35408); assay: cell-based
# Chain of PTGER4 (EP4) (P35408 whole entry): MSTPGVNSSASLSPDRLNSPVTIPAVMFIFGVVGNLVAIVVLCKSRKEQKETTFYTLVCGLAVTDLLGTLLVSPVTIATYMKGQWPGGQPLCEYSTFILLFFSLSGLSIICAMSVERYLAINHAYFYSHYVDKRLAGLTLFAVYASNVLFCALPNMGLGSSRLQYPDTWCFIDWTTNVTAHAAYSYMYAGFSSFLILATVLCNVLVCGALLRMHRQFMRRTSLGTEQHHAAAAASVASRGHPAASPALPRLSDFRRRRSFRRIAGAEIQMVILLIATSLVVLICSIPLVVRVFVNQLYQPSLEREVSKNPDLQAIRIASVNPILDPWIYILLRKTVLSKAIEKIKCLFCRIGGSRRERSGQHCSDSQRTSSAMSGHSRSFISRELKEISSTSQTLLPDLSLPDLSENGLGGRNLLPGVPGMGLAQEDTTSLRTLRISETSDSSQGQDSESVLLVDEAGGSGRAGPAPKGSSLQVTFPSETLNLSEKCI
# Chain of EP2 (P43116 whole entry): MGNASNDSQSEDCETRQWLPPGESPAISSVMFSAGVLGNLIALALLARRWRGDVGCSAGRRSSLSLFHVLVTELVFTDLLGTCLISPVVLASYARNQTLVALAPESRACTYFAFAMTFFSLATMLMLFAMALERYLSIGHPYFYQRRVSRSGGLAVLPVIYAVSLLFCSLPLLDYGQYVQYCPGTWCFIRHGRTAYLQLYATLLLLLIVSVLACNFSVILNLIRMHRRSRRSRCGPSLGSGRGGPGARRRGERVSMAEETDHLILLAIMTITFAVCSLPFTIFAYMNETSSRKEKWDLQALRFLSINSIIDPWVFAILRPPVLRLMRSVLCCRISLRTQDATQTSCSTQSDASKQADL
# Chain of PTGER2 (EP2) (P43116 whole entry): as above
# Chain of EP4 (P35408 whole entry): as the sequence (P35408 whole entry) above
smiles,measurement,setting,value
CCOc1cc(-c2cc(NCCc3cc4ccsc4cc3C)ncn2)ccc1CC(=O)O [Ex 290],IC50,PTGER2 (EP2),163 nM
same,IC50,EP2,194 nM
same,IC50,EP4,527 nM
same,IC50,PTGER4 (EP4),438 nM
"CSc1cc(-c2cc(NCCc3ccc4occc4c3)ncn2)ccc1C(=O)O [Ex 248, 4-[6-(2-Benzofuran-5-yl-ethylamino)-pyrimidin-4-yl]-2-methylsulfanyl-benzoic acid]",IC50,PTGER2 (EP2),132 nM
same,IC50,EP2,50 nM
same,IC50,EP4,366 nM
same,IC50,PTGER4 (EP4),270 nM
"CCOc1cc(-c2cc(NCCc3ccc4ccn(C)c4c3)ncn2)sc1C(=O)O [Ex 42, 3-Ethoxy-5-{6-[2-(1-methyl-1H-indol-6-yl)-ethylamino]-pyrimidin-4-yl}-thiophene-2-carboxylic acid]",IC50,PTGER2 (EP2),240 nM
same,IC50,EP2,137 nM
same,IC50,EP4,21 nM
same,IC50,PTGER4 (EP4),25 nM
"CCOc1cc(-c2cc(NCCc3cc(F)c4sccc4c3)ncn2)sc1CC(=O)O [Example 456, (3-Ethoxy-5-{6-[2-(7-fluoro-benzo[b]thiophen-5-yl)-ethylamino]-pyrimidin-4-yl}-thiophen-2-yl)-acetic acid]",IC50,PTGER2 (EP2),129 nM
same,IC50,EP2,311 nM
same,IC50,EP4; BT549 cells,14 nM
same,IC50,PTGER4 (EP4),21 nM
"CSc1cc(-c2cc(NCCc3ccc4c(c3)OCCC4)ncn2)ccc1C(=O)O [Ex 285, 4-[6-(2-Chroman-7-yl-ethylamino)-pyrimidin-4-yl]-2-methylsulfanyl-benzoic acid]",IC50,EP2,7520 nM
same,IC50,EP4,513 nM
same,IC50,PTGER4 (EP4),341 nM
"CCOc1cc(-c2cc(NCCc3cc4ccccc4cc3Cl)ncn2)sc1C(=O)O [Ex 62, 5-{6-[2-(3-Chloro-naphthalen-2-yl)-ethylamino]-pyrimidin-4-yl}-3-ethoxy-thiophene-2-carboxylic acid]",IC50,EP2,301 nM
same,IC50,EP4,32 nM
same,IC50,PTGER4 (EP4),16 nM
"CCOc1cc(-c2cc(NCCc3ccc4cc[nH]c4c3)ncn2)ccc1OCC(=O)O [Ex 194, (2-Ethoxy-4-{6-[2-(1H-indol-6-yl)-ethylamino]-pyrimidin-4-yl}-phenoxy)-acetic acid]",IC50,EP2,295 nM
same,IC50,EP4,212 nM
same,IC50,PTGER4 (EP4),325 nM
"Fc1cc2ncccc2c(F)c1CCNc1cc(-c2ccc3ncccc3c2)ncn1 [Ex 123, [2-(5,7-Difluoro-quinolin-6-yl)-ethyl]-(6-quinolin-6-yl-pyrimidin-4-yl)-amine]",IC50,EP2,588 nM
same,IC50,EP4,97 nM
same,IC50,PTGER4 (EP4),353 nM
CSc1cc(-c2cc(NCCc3cc(F)c4c(c3)OCCO4)ncn2)ccc1C(=O)O [Ex 216],IC50,EP2,490 nM
same,IC50,EP4,267 nM
same,IC50,PTGER4 (EP4),307 nM
CCOc1cc(-c2cc(NCCc3ccc4scc(C)c4c3)ncn2)ccc1CC(=O)O [Ex 297],IC50,EP2,782 nM
same,IC50,EP4,592 nM
same,IC50,PTGER4 (EP4),2120 nM
"CCOc1cc(-c2cc(NCCc3ccc4ccccc4c3N)ncn2)sc1C(=O)O [Ex 71, 5-{6-[2-(1-Amino-naphthalen-2-yl)-ethylamino]-pyrimidin-4-yl}-3-ethoxy-thiophene-2-carboxylic acid]",IC50,EP2,301 nM
same,IC50,EP4,39 nM
same,IC50,PTGER4 (EP4),24 nM
"O=C(O)c1ccc(-c2cc(NCCc3ccc4c(c3)CCCO4)ncn2)cc1OC1CCC1 [Ex 266, 4-[6-(2-Chroman-6-yl-ethylamino)-pyrimidin-4-yl]-2-cyclobutoxy-benzoic acid]",IC50,EP2,537 nM
same,IC50,EP4,428 nM
same,IC50,PTGER4 (EP4),444 nM
"CCOc1cc(-c2cc(NCCc3cc4ccccc4cc3OC)ncn2)ccc1OCC(=O)O [Ex 122, (2-Ethoxy-4-{6-[2-(3-methoxy-naphthalen-2-yl)-ethylamino]-pyrimidin-4-yl}-phenoxy)-acetic acid]",IC50,EP2,324 nM
same,IC50,EP4,95 nM
same,IC50,PTGER4 (EP4),19 nM
O=C(O)c1ccc(-c2cc(NCCc3ccc4ccsc4c3)ncn2)cc1OC1CCC1 [Ex 147],IC50,EP2,571 nM
same,IC50,EP4,141 nM
same,IC50,PTGER4 (EP4),219 nM
"CCOc1cc(-c2cc(NCCc3ccc4c(ccn4C)c3)ncn2)sc1C(=O)O [Ex 65, 3-Ethoxy-5-{6-[2-(1-methyl-1H-indol-5-yl)-ethylamino]-pyrimidin-4-yl}-thiophene-2-carboxylic acid]",IC50,EP2,304 nM
same,IC50,EP4,35 nM
same,IC50,PTGER4 (EP4),33 nM
CCOc1cc(-c2cc(NCCc3ccc4sccc4c3)ncn2)ccc1C(C)C(=O)O (stereo not shown) [Ex 161],IC50,EP2,524 nM
same,IC50,EP4,130 nM
same,IC50,PTGER4 (EP4),199 nM
CSc1cc(-c2cc(NCCc3ccc4[nH]ccc4c3)ncn2)ccc1C(=O)O [Ex 319],IC50,EP2,354 nM
same,IC50,EP4,559 nM
same,IC50,PTGER4 (EP4),1180 nM
CCOc1cc(-c2cc(NCCc3cc4ccccc4cc3OC)ncn2)ccc1C(=O)O [Ex 162],IC50,EP2,371 nM
same,IC50,EP4,158 nM
same,IC50,PTGER4 (EP4),134 nM
CSc1cc(-c2cc(NCCc3ccc4ccsc4c3)ncn2)ccc1C(=O)O [Ex 176],IC50,EP2,293 nM
same,IC50,EP4,185 nM
same,IC50,PTGER4 (EP4),179 nM
CCOc1cc(-c2cc(NCCc3ccc4ccccc4c3C)ncn2)ccc1OCC(=O)O [Ex 166],IC50,EP2,297 nM
same,IC50,EP4,165 nM
same,IC50,PTGER4 (EP4),49 nM
CSc1cc(-c2cc(NCCc3cc(C)c4c(c3)OCCO4)ncn2)ccc1C(=O)O [Ex 292],IC50,EP2,688 nM
same,IC50,EP4,538 nM
same,IC50,PTGER4 (EP4),1510 nM
CCOc1cc(-c2cc(NCCc3cc4c(cc3SC)OCCO4)ncn2)ccc1OCC(=O)O [Ex 145],IC50,EP2,519 nM
same,IC50,EP4,134 nM
same,IC50,PTGER4 (EP4),90 nM
O=C(O)c1ccc(-c2cc(NCCc3ccc4c(c3)OCC4)ncn2)cc1OC1CCC1 [Ex 295],IC50,EP2,520 nM
same,IC50,EP4,568 nM
same,IC50,PTGER4 (EP4),603 nM
"CCOc1cc(-c2cc(NCCc3cc4c(cc3OC)OCCCO4)ncn2)sc1C(=O)O [Ex 21, 3-Ethoxy-5-{6-[2-(8-methoxy-3,4-dihydro-2H-benzo[b][1,4]dioxepin-7-yl)-ethylamino]-pyrimidin-4-yl}-thiophene-2-carboxylic acid]",IC50,EP2,912 nM
same,IC50,EP4,12 nM
same,IC50,PTGER4 (EP4),58 nM
"CCOc1cc(-c2cc(NCCc3cc4c(cc3OC)CCCC4)ncn2)sc1C(=O)O [Ex 60, 3-Ethoxy-5-{6-[2-(3-methoxy-5,6,7,8-tetrahydro-naphthalen-2-yl)-ethylamino]-pyrimidin-4-yl}-thiophene-2-carboxylic acid]",IC50,EP2,320 nM
same,IC50,EP4,31 nM
same,IC50,PTGER4 (EP4),3 nM
"CSc1cc(-c2cc(NCCc3ccc4c(c3)CCC4)ncn2)ccc1C(=O)O [Ex 185, 4-[6-(2-Indan-5-yl-ethylamino)-pyrimidin-4-yl]-2-methylsulfanyl-benzoic acid]",IC50,EP2,452 nM
same,IC50,EP4,200 nM
same,IC50,PTGER4 (EP4),258 nM
CCSc1cc(-c2cc(NCCc3c(F)cc4ncccc4c3F)ncn2)ccc1C(=O)O [Ex 153],IC50,EP2,340 nM
same,IC50,EP4,146 nM
same,IC50,PTGER4 (EP4),757 nM
"CN1CCCc2cc(CCNc3cc(-c4cc(C(F)(F)F)c(C(=O)O)s4)ncn3)c(F)cc21 [Ex 72, 5-{6-[2-(7-Fluoro-1-methyl-1,2,3,4-tetrahydro-quinolin-6-yl)-ethylamino]-pyrimidin-4-yl}-3-trifluoromethyl-thiophene-2-carboxylic acid]",IC50,EP2,892 nM
same,IC50,EP4,39 nM
same,IC50,PTGER4 (EP4),37 nM
"CCOc1cc(-c2cc(NCCc3ccc4c(c3)CCC4)ncn2)sc1C(=O)O [Ex 44, 3-Ethoxy-5-[6-(2-indan-5-yl-ethylamino)-pyrimidin-4-yl]-thiophene-2-carboxylic acid]",IC50,EP2,283 nM
same,IC50,EP4,21 nM
same,IC50,PTGER4 (EP4),24 nM
CCOc1cc(-c2cc(NCCc3ccc4ccn(C)c4c3)ncn2)ccc1OCC(=O)O [Ex 207],IC50,EP2,673 nM
same,IC50,EP4,248 nM
same,IC50,PTGER4 (EP4),234 nM
CCOc1cc(-c2cc(NCCc3cc4c(cc3OC)CCCC4)ncn2)ccc1OCC(=O)O [Ex 143],IC50,EP2,787 nM
same,IC50,EP4,128 nM
same,IC50,PTGER4 (EP4),22 nM
"CCOc1cc(-c2cc(NCCc3ccc4ccccc4c3Cl)ncn2)sc1C(=O)O [Ex 90, 5-{6-[2-(1-Chloro-naphthalen-2-yl)-ethylamino]-pyrimidin-4-yl}-3-ethoxy-thiophene-2-carboxylic acid]",IC50,EP2,378 nM
same,IC50,EP4,55 nM
same,IC50,PTGER4 (EP4),26 nM
"CCOc1cc(-c2cc(NCCc3ccc4occc4c3)ncn2)ccc1CC(=O)O [Ex 311, {4-[6-(2-Benzofuran-5-yl-ethylamino)-pyrimidin-4-yl]-2-ethoxy-phenyl}-acetic acid]",IC50,EP2,538 nM
same,IC50,EP4,685 nM
same,IC50,PTGER4 (EP4),310 nM
CCOc1cc(-c2cc(NCCc3ccc4ccn(CC)c4c3)ncn2)sc1C(=O)O [Ex 242],IC50,EP2,443 nM
same,IC50,EP4,351 nM
same,IC50,PTGER4 (EP4),495 nM
"CCOc1cc(-c2cc(NCCc3ccc4ccccc4c3)ncn2)sc1-c1noc(=O)[nH]1 [Example 345, 3-{3-Ethoxy-5-[6-(2-naphthalen-2-yl-ethylamino)-pyrimidin-4-yl]-thiophen-2-yl}-[1,2,4]oxadiazol-5(4H)-one]",IC50,EP2,683 nM
same,IC50,EP4,30 nM
same,IC50,PTGER4 (EP4),6 nM
"CCOc1cc(-c2cc(NCCc3ccc4c(c3)OCCC4)ncn2)sc1C(=O)O [Ex 58, 5-[6-(2-Chroman-7-yl-ethylamino)-pyrimidin-4-yl]-3-ethoxy-thiophene-2-carboxylic acid]",IC50,EP2,9390 nM
same,IC50,EP4,30 nM
same,IC50,PTGER4 (EP4),13 nM
"O=C(O)c1ccc(-c2cc(NCCc3ccc4c(c3)CCC4)ncn2)cc1OC1CCC1 [Ex 206, 2-Cyclobutoxy-4-[6-(2-indan-5-yl-ethylamino)-pyrimidin-4-yl]-benzoic acid]",IC50,EP2,572 nM
same,IC50,EP4,248 nM
same,IC50,PTGER4 (EP4),304 nM
